This is an account of results in article doi:10.1101/2022.06.06.494947v1 (biorxiv, 2022).

Structures are written as SMILES.

The target of this assay is His-mASPDH (mouse ASPDH) (Mus musculus, UniProt Q9DCQ2). The assay is described as follows: ITC, one-site model. It is filed as binding. In general terms: Isothermal titration calorimetry measures the heat released or taken up as one component is titrated into another.
His-mASPDH (mouse ASPDH), sequence (Q9DCQ2 whole entry): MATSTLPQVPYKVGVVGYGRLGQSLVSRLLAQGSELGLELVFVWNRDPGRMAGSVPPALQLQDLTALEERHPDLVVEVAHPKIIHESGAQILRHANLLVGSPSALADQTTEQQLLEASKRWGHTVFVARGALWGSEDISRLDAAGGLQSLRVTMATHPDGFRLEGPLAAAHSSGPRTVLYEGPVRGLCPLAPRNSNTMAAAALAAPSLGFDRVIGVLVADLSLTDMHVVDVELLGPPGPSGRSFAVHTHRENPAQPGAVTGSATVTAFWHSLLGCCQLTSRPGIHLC

With `Nc1ncnc2c1ncn2[C@@H]1O[C@H](COP(=O)(O)OP(=O)(O)OC[C@H]2O[C@@H]([n+]3cccc(C(=O)O)c3)[C@H](O)[C@@H]2O)[C@@H](O)[C@H]1OP(=O)(O)O` [NAADP], binding was put at a Kd of 455 ± 231 nM.
As for `NC(=O)c1ccc[n+]([C@@H]2O[C@H](COP(=O)(O)OP(=O)(O)OC[C@H]3O[C@@H](n4cnc5c(N)ncnc54)[C@H](OP(=O)(O)O)[C@@H]3O)[C@@H](O)[C@H]2O)c1` [NADP], the figure is 958 ± 203 nM.

The term Kd denotes the concentration at which binding is half-saturated. A lower Kd goes with higher affinity.
